Results from patent US11517530B2, “Therapeutic agents specifically delivered by exosomes for cancer treatment” (The Board of Trustees of the Leland Stanford Junior …, priority 2017, dated 2022).

What was measured:
[1] = test system: orthotopically implanted BT474 tumors; experiment: In vivo assay for EXO-DEPT EV functionality, tumor growth; set-up: species or system nu/nu mice; details: 2×10^9 EVs i.p., CNOB 3.3 mg/kg i.v.
Method: In vivo assays for EXO-DEPT EV functionality. All animal experiments were performed in accordance with protocols approved by Stanford University Institutional Animal Care and Use Committee. Number of mice required for this study was determined by power analysis using the G*Power 3.1.5 power calculator (Universitat Dusseldorf) for F-tests of one-way ANOVA by setting Type I error at 5% (alpha=0.05); power was kept at 0.8, and the number of treatment groups=5. The effect size f was calculated as 0.707. This number was then used to determine total sample size of 30 with 6 mice per treatment group (n=6). […] Tumor size was monitored by caliper at two-day intervals, and tumor volume was calculated using the formula: tumor width^2×its length/2. […]
The effect of administration of EXO-DEPT EVs along with CNOB was tested on orthotopically implanted BT474 tumors in athymic mice; the treatment schedule (FIG. 4E) was guided by earlier PK/PD studies. […] After measurable implanted tumors in mice were detected, they were randomly allocated into 5 treatment groups (n=6): untreated; loaded EVs only; CNOB only; undirected loaded EVs+CNOB; and EXO-DEPT-EVs+CNOB. […]
Each mouse was measured at nine time periods, days 0,3,7,11,16,19,24,28,32. A linear regression of tumor burden versus day was fit for each mouse, by ordinary least squares, and its slope calculated. s[i]=slope of mouse[i]'s linear regression

[2] = test system: 4T1 murine mammary cells that endogenously generated HChrR6 enzyme; details: initial studies; cited from earlier work
[3] = earlier PK/PD studies; cited from earlier work

O=c1c(Cl)c2oc3cc([N+](=O)[O-])ccc3nc-2c2ccccc12 [CNOB, 6-chloro-9-nitro-5-oxo-5H-benzo-(a)-phenoxazine]
tumor growth ([1]; versus controls): no significant difference
mean slope of linear regression of tumor burden versus day ([1]; days 0-32): 7.24
survival of mice [2]: marked improvement

Nc1ccc2nc3c4ccccc4c(=O)c(Cl)c-3oc2c1 [MCHB, 9-p amino-6-chloro-5H-benzo′a″phenoxazine-5-one]
half-life in plasma [3]: 8.3 h
